Read-outs that look alike come from different tables or passages of the source.
What was measured:
[1] = tested on: A2780-SP cells (ovarian cancer stem cells); assay: Sphere cell viability of A2780-SP cells (Cell-titer Glo); type: cell-based
Experimental: (§1) In order to confirm the inhibitory effect of the compound represented by formula 1 according to the present invention on the growth of MCF7, MCF7-SP, A2780 or A2780-SP cells, the following experiment was performed, and the results are shown in Tables 4 and 5 below.
On the other hand, A2780-SP cells (ovarian cancer stem cells) were plated in an Ultra-Low Attachment round bottom 96-well plate (corning) at the density of 1,500 viable cells per well, and cultured in cancer stem cell medium. The cancer stem cell medium is composed of the neurobasal medium supplemented with 20 ng/ml of bFGF, 10 ng/ml of EGF, […] of amphotericin B, HEPES, Glutamax and B27.
On the next day of culture, the cells were treated with the compound of Examples 57, and 69 to 144, followed by culture for 8 days. The medium containing the compound was added thereto once again on the 4th day. Sphere cell viability was evaluated by Cell-titer Glo (Promega, WC, USA), and luciferase activity was detected using a Tecan plate reader (Biocompare, USA).

[2] = tested on: A2780 cells (ovarian cancer cells); assay: Cell viability of A2780 cells (Cell-titer Glo); type: cell-based; conditions: Homo sapiens
Experimental: as §1
In addition, A2780 cells (ovarian cancer cells) were plated in a 96-well plate at the density of 3000 viable cells per well, and cultured in RPMI-1640 medium supplemented with 10% FBS and 1% penicillin/streptomycin.
On the next day of culture, the cells were treated with the compound of Examples 57, and 69 to 144, followed by culture for 3 days. Cell viability was evaluated by Cell-titer Glo (Promega, WC, USA), and luciferase activity was detected using a Tecan plate reader (Biocompare, USA).

[3] = molecular target: T1, Pin1 (Homo sapiens, UniProt Q13526); assay: Evaluation of Pin1 enzyme inhibitory activity (Sensolyte Green Pin1 assay kit); type: biochemical
T1 construct: purchased Anaspec
T1 sequence (Q13526 whole entry): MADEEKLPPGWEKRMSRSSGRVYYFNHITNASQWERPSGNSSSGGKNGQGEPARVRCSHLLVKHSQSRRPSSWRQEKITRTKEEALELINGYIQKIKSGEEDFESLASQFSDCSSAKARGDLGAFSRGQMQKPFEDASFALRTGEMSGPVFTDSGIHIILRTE
Outline: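 Compounds were tested at four working concentrations (100, 10, 1, 0.1 μM), mixed with Pin1 (50 μg/ml stock dilution), developer and substrate (1 μM as prepared). Fluorescence at 490/520 nm was recorded after 2 h in the dark at room temperature. Results were grouped into grades A–D by inhibiting concentration.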

[4] = 192 h, sphere cell viability, culture for 8 days, read-out: A2780-SP
[5] = Table 5, read-out: the concentration (second list of b710, cell line not named; matches A2780-SP column)
[6] = 72 h, cell viability, culture for 3 days, read-out: A2780
[7] = A2780, Table 5, read-out: A2780 cell concentration
[8] = Table 2, read-out: concentration at which Pin1 inhibitory activity was exhibited
[9] = concentration at which the Pin1 enzyme activity is inhibited, 2 hours at room temperature, fluorescence 490 nm/520 nm, read-out: Pin 1 inhibition

SMILES | IC50 [1, 4] | IC50 [1, 5] | IC50 [2, 6] | IC50 [2, 7] | IC50 [3, 8] | IC50 [3, 9]
CN1CCN(CCCOc2ccc(S(=O)(=O)Nc3ccccc3Cc3c[nH]c4ccc(Cl)cc34)cc2)CC1 [Example 149, N-(2-((5-chloro-1H-indole-3-yl)methyl)phenyl)-4-(3-(4-methylpiperazine-1-yl)propoxy)benzenesulfonamide] | > 10 µM |  | > 10 µM |  | < 1 µM | < 1 µM
Cc1[nH]c2ccc(Cl)cc2c1CCCNS(=O)(=O)c1ccc(OCCCN2CCN(C)CC2)cc1 [Example 147, N-(3-(5-chloro-2-methyl-1H-indole-3-yl)propyl)-4-(3-(4-methylpiperazine-1-yl)propoxy)benzenesulfonamide] | > 10 µM |  | > 10 µM |  | < 1 µM | < 1 µM
O=S(=O)(NCCCc1c[nH]c2ccc(Cl)cc12)c1ccc(OCCCn2cnc(Cl)c2Cl)cc1 [Example 166, N-(3-(5-chloro-1H-indol-3-yl)propyl)-4-(3-(4,5-dichloro-1H-imidazol-1-yl)propoxy)benzenesulfonamide] | 1 to 10 µM |  | > 10 µM |  | < 1 µM | < 1 µM
O=S(=O)(NCC1CCc2[nH]c3ccc(Cl)cc3c2C1)c1ccc(OCCCN2CCNCC2)cc1 (stereo not shown) [Example 178, N-((6-chloro-2,3,4,9-tetrahydro-1H-carbazol-3-yl)methyl)-4-(3-(piperazin-1-yl)propoxy)benzenesulfonamide] | < 1 µM | < 1 µM | 1 to 10 µM | < 10 µM | < 1 µM | < 1 µM
CC(CCc1c[nH]c2ccc(Cl)cc12)NS(=O)(=O)c1ccc(OCCCN2CCNCC2)cc1 (stereo not shown) [Example 152, N-(4-(5-chloro-1H-indol-3-yl)butan-2-yl)-4-(3-(piperazin-1-yl)propoxy)benzenesulfonamide] | < 1 µM | < 1 µM | > 10 µM |  | < 1 µM | < 1 µM
O=S(=O)(NCCCc1c[nH]c2ccc(Cl)cc12)c1ccc(OC[C@H](O)CN2CCNCC2)cc1 [Example 172, (R)—N-(3-(5-chloro-1H-indol-3-yl)propyl)-4-(2-hydroxy-3-(piperazin-1-yl)propoxy)benzenesulfonamide] | < 1 µM | < 1 µM | > 10 µM |  | < 1 µM | < 1 µM
O=S(=O)(NCCCc1c[nH]c2ncc(Cl)cc12)c1ccc(OCCCN2CCNCC2)cc1 [Example 170, N-(3-(5-chloro-1H-pyrrolo[2,3-b]pyridin-3-yl)propyl)-4-(3-(piperazin-1-yl)propoxy)benzenesulfonamide] | < 1 µM | < 1 µM | 1 to 10 µM | < 10 µM | < 1 µM | < 1 µM

Second part, the molecule after the results:

IC50 [1, 4] | IC50 [1, 5] | IC50 [2, 6] | IC50 [2, 7] | IC50 [3, 8] | IC50 [3, 9] | SMILES
< 1 µM | < 1 µM | 1 to 10 µM | < 10 µM | < 1 µM | < 1 µM | O=S(=O)(NCCCc1c[nH]c2ccc(Br)cc12)c1ccc(OCCCN2CCNCC2)cc1 [Example 153, N-(3-(5-bromo-1H-indole-3-yl)propyl)-4-(3-(piperazine-1-yl)propoxy)benzenesulfonamide]
< 1 µM | < 1 µM | > 10 µM |  | < 1 µM | < 1 µM | O=S(=O)(NCCCc1c[nH]c2cc(Cl)c(Cl)cc12)c1ccc(OCCCN2CCNCC2)cc1 [Example 183, N-(3-(5,6-dichloro-1H-indol-3-yl)propyl)-4-(3-(piperazin-1-yl)propoxy)benzenesulfonamide]
< 1 µM | < 1 µM | > 10 µM |  | < 1 µM | < 1 µM | CN1CCN(CCCCc2ccc(S(=O)(=O)NCCCc3c[nH]c4ccc(Cl)cc34)cc2)CC1 [Example 112, N-(3-(5-chloro-1H-indol-3-yl)propyl)-4-(4-(4-methylpiperazin-1-yl)butyl)benzenesulfonamide]
< 1 µM | < 1 µM | > 10 µM |  | < 1 µM | < 1 µM | O=S(=O)(NCC1CCc2[nH]c3ccc(F)cc3c2C1)c1ccc(OCCCN2CCNCC2)cc1 (stereo not shown) [Example 188, N-((6-fluoro-2,3,4,9-tetrahydro-1H-carbazol-3-yl)methyl)-4-(3-(piperazin-1-yl)propoxy)benzenesulfonamide]
< 1 µM | < 1 µM | > 10 µM |  |  | 1 to 10 µM | C[C@@H]1CN(CCCOc2ccc(S(=O)(=O)NCCCc3c[nH]c4ccc(Cl)cc34)cc2)C[C@H](C)N1 [Example 110, N-(3-(5-chloro-1H-indol-3-yl)propyl)-4-(3-((3S,5R)-3,5-dimethylpiperazin-1-yl)propoxy)benzenesulfonamide]
< 1 µM | < 1 µM | > 10 µM |  | < 1 µM | < 1 µM | CN1CCN(C[C@@H](O)COc2ccc(S(=O)(=O)NCCCc3c[nH]c4ccc(Cl)cc34)cc2)CC1 [Example 171, (R)—N-(3-(5-chloro-1H-indole-3-yl)propyl)-4-(2-hydroxy-3-(4-methylpiperazine-1-yl)propoxy)benzenesulfonamide]
< 1 µM | < 1 µM | > 10 µM |  | < 1 µM | < 1 µM | CC(CCc1c[nH]c2ccc(Cl)cc12)NS(=O)(=O)c1ccc(OCCCN2CCN(C)CC2)cc1 (stereo not shown) [Example 151]
< 1 µM | < 1 µM | > 10 µM |  | < 1 µM | < 1 µM | CN1CCN(CCCOc2ccc(S(=O)(=O)NCCc3c[nH]c4ccc(Cl)cc34)cc2)CC1 [Example 158, N-(2-(5-chloro-1H-indol-3-yl)ethyl)-4-(3-(4-methylpiperazin-1-yl)propoxy)benzenesulfonamide]
< 1 µM | < 1 µM | > 10 µM |  | < 1 µM | < 1 µM | CN1CCN(CCCc2ccc(S(=O)(=O)NCCCc3c[nH]c4ccc(Cl)cc34)cc2)CC1 [Example 186, N-(3-(5-chloro-1H-indol-3-yl)propyl)-4-(3-(4-methylpiperazin-1-yl)propyl)benzenesulfonamide]
